“Also recorded” adds a separate entry of the source.
How the values were obtained:
Sprague-Dawley rats = conditions: rat, in vivo
weanling pigs = conditions: pig, in vivo
male Sprague-Dawley rats = conditions: rat, in vivo

Compound	delay before effect on the fasting pattern (Sprague-Dawley rats)	effect on fasting pattern of gut motility (Sprague-Dawley rats)	induction of fed pattern of gut motility (Sprague-Dawley rats)	duration of action (Sprague-Dawley rats) [min]	onset time after administration (Sprague-Dawley rats) [s]	emesis (weanling pigs)	food consumption in the AM meal following the AM treat (weanling pigs)	persistence of the effect on food consumption (weanling pigs)	food consumption (male Sprague-Dawley rats)	food consumption and weight gain (male Sprague-Dawley rats)	weight gain (male Sprague-Dawley rats)
C[C@@H]1C[C@H]2O[C@@H]3[C@H](O)C[C@](C)([C@]24COC(c2ccccc2)O[C@@H]4[C@@H]1O)[C@@]3(C)O (stereo partly drawn) [EN139502, 7α,15-benzylidene-9α,12β-dimethyltrichothecan-3α,8α,12α-triol]	approximately 5 min	intensify or enhance the fasting pattern	did not induce the fed pattern								
C[C@@H]1C[C@H]2O[C@@H]3[C@H](O)C[C@](C)([C@]24COC(c2ccccc2)O[C@@H]4C1=O)[C@@]3(C)O (stereo partly drawn) [EN139522, 7α,15-benzylidene-9α,12β-dimethyl-3α,12α-dihydroxytrichothecan-8-one]			induce a classic fed pattern	35	20						
CC1=C[C@H]2O[C@@H]3[C@H](O)C[C@](C)([C@@]2(CO)[C@H](O)C1=O)[C@]31CO1 [DON, 3α,7α,15-trihydroxy-12,13-epoxy-trichothec-9-en-8-one]			induced the fed pattern			some emesis	decreased food consumption	wore off by the next meal	decrease	immediate and sustained reduction; also recorded: concentration-dependant reduction	decrease

From EP1366052B1 (priority 2001, dated 2002)
